This note sets out measurements from article PMC6270304, “Synthesis, Structure and Cytotoxic Activity of New Acetylenic Derivatives of Betulin” (Molecules, 2013).

Converted amounts (≈) assume the structure as drawn.

Data set [1] in a line: Antiproliferative assay in vitro (SRB). It counts as cell-based, mouse. Conditions: mouse; Balb3T3 normal fibroblasts; SRB; Neg = negative in the concentration used; read-out: Cytotoxic activity IC50, Murine Balb3T3. On the procedure:
(§1) Cytotoxic activities of all newly synthesized compounds including betulin (1) were tested in SRB or MTT (in the case of leukemia cells) assay for their antiproliferative activity in vitro against three human cancer cell lines: SW707 (colorectal adenocarcinoma), CCRF/CEM (leukemia), T47D (breast cancer), and murine leukemia P388 as well as Balb3T3 normal fibroblasts cell lines. […] A value of less than 4 μg/mL was considered as an antiproliferative activity criterion for synthetic compounds [31].
(§2) The following established in vitro cell lines were applied: SW707 (human colorectal adenocarcinoma), CCRF/CEM (human leukemia), T47D (human breast cancer), P388 (mouse leukemia) and Balb3T3 (normal mouse fibroblasts). All lines were obtained from the American Type Culture Collection (Rockville, MD, USA) and maintained at the Cell Culture Collection of the Institute of Immunology and Experimental Therapy (Wroclaw, Poland).
(§3) Twenty-four hours before addition of the tested agents, the cells were plated in 96-well plates (Sarstedt, Numbrecht, Germany) at a density of 10^4 cells per well in 100 μL of culture medium. The cells were cultured in the opti-MEM medium supplemented with 2 mM glutamine (Gibco, Grand Island, NY, USA), streptomycin (50 μg/mL), penicillin (50 U/mL) (both antibiotics from Polfa, Tarchomin, Poland) and 5% fetal calf serum (Gibco). The cell cultures were maintained at 37 °C in humid atmosphere saturated with 5% CO2.
(§4) The compounds were dissolved in DMSO and culture medium (1:9) to the concentration of 1 mg/mL, and subsequently diluted in culture medium to reach the required concentrations (ranging from […]).
(§5) The in vitro cytotoxic effect of all agents was examined using the SRB assay for adherent cells and MTT assay for leukemia cells as described by Wietrzyk et al.. Each compound in given concentration was tested in triplicates in each experiment, which was repeated 3–5 times.

For data set [2], the system named is SW707 (human colorectal adenocarcinoma). The experiment in a line: Antiproliferative assay in vitro (SRB). It counts as cell-based. Conditions: for IC50: Homo sapiens, SW707, read-out: Cytotoxic activity IC50, Human SW707. On the procedure:
as §1, §2, §3, §4, §5

In data set [3] the test system is T47D (human breast cancer). Description: Antiproliferative assay in vitro (SRB). It counts as cell-based. The following applies: for IC50: Homo sapiens, T47D, read-out: Cytotoxic activity IC50, Human T47D. On the procedure:
as §1, §2, §3, §4, §5

The test system of data set [4] is CCRF/CEM (human leukemia). The experiment in a line: Antiproliferative assay in vitro (MTT). It is filed as cell-based. Conditions: Homo sapiens, CCRF-CEM, read-out: Cytotoxic activity IC50, Human CCRF/CEM. The procedure: as §1, §2, §3, §4, §5
A further data set deals with P388 (mouse leukemia). The experiment in a line: Antiproliferative assay in vitro (MTT). It is filed as cell-based. Conditions: for IC50: Mus musculus, P388, read-out: Cytotoxic activity IC50, Murine P388. The procedure: as §1, §2, §3, §4, §5
In data set [5] the test system is investigated cancer cell lines (T47D, CCRF/CEM, SW707, P388, Balb3T3). Description: cells. It counts as cell-based, human and murine. The procedure:
as §1, §2, §3, §4, §5

For data set [6], the system named is Balb3T3 (normal mouse fibroblasts). Description: Antiproliferative assay in vitro (SRB). It is filed as cell-based. The procedure:
as §1, §2, §3, §4, §5

`C=C(C)[C@@H]1CC[C@]2(CO)CC[C@]3(C)[C@H](CC[C@@H]4[C@@]5(C)CC[C@H](O)C(C)(C)[C@@H]5CC[C@]43C)[C@@H]12` [Compound 1, lup-20(29)-ene-3β,28-diol, reference compound]: the IC50 in data set [1] was 47.3 ± 7.9 µg/mL (≈ 107 µM); in data set [2], 22.9 ± 15.4 µg/mL (≈ 51.7 µM); in data set [3], 32.4 ± 10.7 µg/mL (≈ 73.2 µM); in data set [4] it was 10.9 ± 5.5 µg/mL (≈ 24.6 µM); in the data set with P388 (mouse leukemia), 5.5 ± 3.3 µg/mL (≈ 12.4 µM); in data set [5] (Mus musculus, all cell lines except leukemia P388, read-out: IC50 values range over investigated cell lines), 10.9 to 47.3 µg/mL (≈ 24.6 to 107 µM). In the data set with P388 (mouse leukemia) (ratio IC50 of normal fibroblast (Balb3T3) / IC50 on P388), the “selectivity index (SI)” value is given as 8.6.

For the molecule `C#CCOC(=O)OC[C@]12CCC(C(=C)C)C1C1CCC3[C@@]4(C)CC[C@H](O)C(C)(C)C4CC[C@@]3(C)[C@]1(C)CC2` (some centres unmarked) [Compound 3a, 28-O-Propargyloxycarbonylbetulin], the IC50 in data set [2] was 9.2 ± 7.1 µg/mL (≈ 17.5 µM); in data set [3] it was 7.2 ± 1.7 µg/mL (≈ 13.7 µM); in data set [4], 3.2 ± 0.4 µg/mL (≈ 6.1 µM); with P388 (mouse leukemia) it was 2.9 ± 0.2 µg/mL (≈ 5.53 µM). The “cytotoxicity relative to betulin (1)” value in data set [5] was “three to four times more cytotoxic than betulin”.

In turn, `C=C(C)C1CC[C@]2(COC(=O)C#Cc3ccccc3)CC[C@]3(C)C(CCC4[C@@]5(C)CC[C@H](O)C(C)(C)C5CC[C@]43C)C12` (some centres unmarked) [Compound 5b, 28-O-Phenylpropynoylbetulin] displayed a melting point of 204 to 206 °C. In addition, in data set [6], the “Cytotoxic activity IC50, Murine Balb3T3” value is listed as “Neg”. The “Cytotoxic activity IC50, Human SW707” value in data set [2] is listed as “Neg”. In data set [3], the “Cytotoxic activity IC50, Human T47D” value is reported as “Neg”. Further, the IC50 in data set [4] is 49 ± 9.8 µg/mL (≈ 85.8 µM). Besides, the “Cytotoxic activity IC50, Murine P388” value in the data set on P388 (mouse leukemia) is reported as “Neg”. Besides, the “cytotoxic activity in words” value in data set [5] is “inactive”.

The molecule `C=C(C)C1CC[C@]2(COC(=O)C#Cc3ccccc3)CC[C@]3(C)C(CCC4[C@@]5(C)CC[C@H](OC(=O)C#Cc6ccccc6)C(C)(C)C5CC[C@]43C)C12` (some centres unmarked) [Compound 6b, 3,28-O,O'-Di(phenylpropynoyl)betulin] gave a melting point of 91 to 92 °C. The “Cytotoxic activity IC50, Murine Balb3T3” value in data set [6] is recorded as “Neg”. Besides, the “Cytotoxic activity IC50, Human SW707” value in data set [2] is “Neg”. Besides, the “Cytotoxic activity IC50, Human T47D” value in data set [3] was “Neg”. For the same molecule, in data set [4], the IC50 turned out to be 66 ± 2.8 µg/mL (≈ 94.4 µM). Also, the “Cytotoxic activity IC50, Murine P388” value in the data set with P388 (mouse leukemia) was “Neg”. Further, the “cytotoxic activity in words” value in data set [5] was “inactive”.
